The values below come from patent publication US20200291018A1, “TAM KINASE INHIBITORS” (SYROS PHARMACEUTICALS, INC., priority 2017, published 2020).

The target in one assay is T1, AXL (Homo sapiens, UniProt P30530).
T1 sequence (P30530 26-894): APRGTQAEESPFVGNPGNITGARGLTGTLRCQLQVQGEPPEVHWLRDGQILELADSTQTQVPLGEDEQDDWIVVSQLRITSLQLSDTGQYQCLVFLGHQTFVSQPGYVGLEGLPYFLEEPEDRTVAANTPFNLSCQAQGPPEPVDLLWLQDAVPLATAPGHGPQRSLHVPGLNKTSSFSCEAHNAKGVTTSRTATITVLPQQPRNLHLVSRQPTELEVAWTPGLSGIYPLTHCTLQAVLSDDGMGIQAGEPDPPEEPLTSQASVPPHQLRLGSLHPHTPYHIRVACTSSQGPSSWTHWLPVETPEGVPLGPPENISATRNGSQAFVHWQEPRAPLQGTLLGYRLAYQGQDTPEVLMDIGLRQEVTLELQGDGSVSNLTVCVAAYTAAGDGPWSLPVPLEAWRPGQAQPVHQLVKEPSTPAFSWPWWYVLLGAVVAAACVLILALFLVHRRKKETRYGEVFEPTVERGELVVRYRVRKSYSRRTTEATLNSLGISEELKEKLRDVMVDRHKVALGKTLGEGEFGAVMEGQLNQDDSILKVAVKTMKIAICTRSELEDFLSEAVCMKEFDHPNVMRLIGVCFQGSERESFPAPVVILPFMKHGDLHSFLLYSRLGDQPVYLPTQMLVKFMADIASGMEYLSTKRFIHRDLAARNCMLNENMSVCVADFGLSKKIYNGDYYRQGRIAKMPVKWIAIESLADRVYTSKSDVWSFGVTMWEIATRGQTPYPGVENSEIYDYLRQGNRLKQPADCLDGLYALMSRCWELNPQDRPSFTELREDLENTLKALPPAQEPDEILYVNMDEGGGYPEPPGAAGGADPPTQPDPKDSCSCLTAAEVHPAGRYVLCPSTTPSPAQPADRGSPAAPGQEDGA
As to the kind of experiment: TR-FRET kinase activity assay, AXL. Type of assay: biochemical. The note with it: ATP at Km, 60 minutes. The essentials: (§1)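 IC50 came from TR-FRET signal after 30 min dark development with a Europium-labeled phospho-specific antibody. This followed a 60 min RT reaction, stopped with EDTA, started with ATP at Km per enzyme. Peptide substrate, enzyme and compound were premixed in HEPES pH 7.5 buffer with MgCl2, EGTA, Brij 35 and DTT.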
(In general: TR-FRET usually uses a lanthanide donor and a delayed reading to cut background.)

Another assay concerns the target T2, MERTK (Homo sapiens, UniProt Q12866).
T2 sequence (Q12866 21-999): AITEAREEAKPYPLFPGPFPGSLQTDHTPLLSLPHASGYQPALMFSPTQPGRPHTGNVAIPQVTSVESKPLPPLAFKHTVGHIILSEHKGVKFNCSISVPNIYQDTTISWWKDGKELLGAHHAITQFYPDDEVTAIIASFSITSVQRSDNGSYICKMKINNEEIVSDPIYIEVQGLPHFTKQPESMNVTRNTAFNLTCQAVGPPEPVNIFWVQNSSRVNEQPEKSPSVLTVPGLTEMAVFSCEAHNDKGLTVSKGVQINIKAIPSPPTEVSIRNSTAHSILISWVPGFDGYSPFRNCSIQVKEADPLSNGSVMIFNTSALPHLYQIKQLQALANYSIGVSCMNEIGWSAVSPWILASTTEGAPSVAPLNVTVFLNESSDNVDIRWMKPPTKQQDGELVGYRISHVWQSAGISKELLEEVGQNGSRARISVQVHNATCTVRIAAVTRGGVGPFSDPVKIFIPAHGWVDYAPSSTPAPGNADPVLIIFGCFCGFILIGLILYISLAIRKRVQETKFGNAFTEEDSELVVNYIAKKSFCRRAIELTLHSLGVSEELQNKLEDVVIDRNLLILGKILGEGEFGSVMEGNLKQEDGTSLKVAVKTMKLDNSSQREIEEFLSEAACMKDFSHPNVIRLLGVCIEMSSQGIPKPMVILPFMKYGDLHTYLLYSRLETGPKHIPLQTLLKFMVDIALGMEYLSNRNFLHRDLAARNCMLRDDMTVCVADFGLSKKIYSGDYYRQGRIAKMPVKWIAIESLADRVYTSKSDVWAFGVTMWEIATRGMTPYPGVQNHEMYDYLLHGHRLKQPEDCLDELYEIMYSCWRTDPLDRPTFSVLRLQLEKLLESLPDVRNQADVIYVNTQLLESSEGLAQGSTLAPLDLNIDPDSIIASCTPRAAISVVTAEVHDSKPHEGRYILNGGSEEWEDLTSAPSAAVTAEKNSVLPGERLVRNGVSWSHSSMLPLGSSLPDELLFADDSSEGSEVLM
As to the kind of experiment: TR-FRET kinase activity assay, MERTK. To be noted: for IC50: TR-FRET activity assay, ATP at Km, 60 minutes, read-out: Mer IC50; for Mer/Flt3 ratio (FLT3 IC50/Mer IC50): ratio calculated as FLT3 IC50/Mer IC50. Type of assay: biochemical. Summed up: as §1

For `COC(=O)c1ccc(Nc2ncc3c(OC4CCNCC4)ncc([C@H]4CC[C@H](O)CC4)c3n2)cc1` [Compound 272], the 50% inhibitory concentration (IC50) on AXL and on MERTK was not above 100 nM each time. In addition, the “Mer/Flt3 ratio (FLT3 IC50/Mer IC50)” value on MERTK is “+ (a ratio of >2.0 and <10)”.

As to `CCOc1ncc([C@H]2CC[C@H](O)CC2)c2nc(N[C@@H](C)COC)ncc12` [Compound 273], the IC50 against AXL fell in the range of 100 to 1000 nM. In addition, at MERTK, the half-maximal inhibitory concentration (IC50) was not above 100 nM and the “Mer/Flt3 ratio (FLT3 IC50/Mer IC50)” value is given as “+++ (a ratio of >100)”.

Turning to `CC(C)Nc1ncc2c(OC3CCOCC3)ncc(-c3cccc(CC#N)c3)c2n1` [Compound 274], on AXL, the IC50 lay in the range of 100 to 1000 nM. Moreover, at MERTK, the half-maximal inhibitory concentration (IC50) was not above 100 nM; the “Mer/Flt3 ratio (FLT3 IC50/Mer IC50)” value was “++ (a ratio of between 10 and 100)”.

As to `CC[C@H](C)Nc1ncc2c(OC3C[C@@H](C)O[C@@H](C)C3)ncc([C@H]3CC[C@H](O)CC3)c2n1` (stereo partly drawn) [Compound 275], on AXL, the half-maximal inhibitory concentration (IC50) fell in the range of 1000 to 10000 nM. In addition, on MERTK, the IC50 is not above 100 nM and the “Mer/Flt3 ratio (FLT3 IC50/Mer IC50)” value is on record as “+++ (a ratio of >100)”.

`CC(C)Nc1ncc2c(OC3CCOCC3)ncc(-c3cccc(CC(=O)O)c3)c2n1` [Compound 276] returned an IC50 at AXL of 1000 to 10000 nM. In addition, at MERTK, the half-inhibitory concentration (IC50) fell in the range of 1000 to 10000 nM; the “Mer/Flt3 ratio (FLT3 IC50/Mer IC50)” value is “++ (a ratio of between 10 and 100)”.

Regarding `O[C@H]1CC[C@H](c2cnc(OC3CCOCC3)c3cnc(N[C@H]4CCNC4)nc32)CC1` [Compound 277], the half-maximal inhibitory concentration (IC50) on AXL lay within 1000 to 10000 nM. For the same compound, on MERTK, the IC50 is 1000 to 10000 nM and the “Mer/Flt3 ratio (FLT3 IC50/Mer IC50)” value is “NS (a ratio of ≤2.0)”.

As a reminder, the IC50 is the concentration that inhibits the measured activity by half.
